Laboratory results taken from a melting point compilation (Tetko et al.).

Row | SMILES | melting point [°C]
1 | Cc1[nH]c(=O)[nH]c1C | 239 to 241
2 | O=C(O)C1CCN(S(=O)(=O)c2ccc(F)c(Cl)c2)CC1 | 190 to 192
3 | Cc1ccc(N)cc1S(=O)(=O)N1CCCCCC1 | 44 to 46
4 | CC(C)Oc1ccc(C(N)=O)cc1 | 166 to 168
5 | Oc1ccc(CNC2CCCCC2)cc1 | 105 to 107
6 | Nc1ncc(-c2ccccc2F)s1 | 149 to 151
7 | CC(Oc1ccc(F)c(F)c1)C(=O)O (stereo unspecified) | 39 to 41
8 | NC(=O)C(CC(=O)O)NC(=O)OCc1ccccc1 (stereo unspecified) | 169 to 171
9 | NCc1nnc2n1CCCC2 | 99 to 101
10 | Clc1ccc(-c2ccccc2)nn1 | 157 to 159
11 | Nc1nc2c(F)c(F)c(F)cc2s1 | 160 to 164
12 | O=c1n(CCCl)nc2ccccn12 | 139 to 141
13 | O=C(O)CCCNC(=O)OCc1ccccc1 | 60 to 64
14 | Cc1ccc(=O)n(CC(=O)O)n1 | 249 to 251
15 | O=C(c1cccnc1)c1ccc(F)cc1F | 54 to 56
16 | O=C(O)Cc1csc(-c2ccsc2)n1 | 110 to 112
17 | Nc1ccc(NC(=O)c2cccs2)cc1 | 166 to 168
18 | COC(=O)c1cc2cc(CBr)ccc2o1 | 108 to 110
19 | CC(=CC(=O)O)C(C)(C)C | 83 to 85
20 | COc1ccc([N+](=O)[O-])cc1C(C)N (stereo unspecified) | 62 to 64
21 | CC1=CC(=O)N(c2ccccc2F)C1=O | 83 to 85
22 | C#CCNC(=O)CBr | 73 to 75
23 | Cc1ccc(NC2C=CS(=O)(=O)C2)cc1 (stereo unspecified) | 115 to 117
24 | OCc1c(Cl)nc2sccn12 | 174 to 176
25 | COc1ccc(NC(=O)C(C)Cl)cc1 (stereo unspecified) | 133 to 135

Row | SMILES | melting point [°C]
26 | Cc1ccc(C)c2sc(N)nc12 | 151 to 153
27 | COC(=O)c1nc(Cl)ccc1S(=O)(=O)Cl | 143 to 145
28 | CCCS(=O)(=O)N1CCC(=NO)CC1 | 146 to 148
29 | COCc1cc(C(=O)O)no1 | 85 to 87
30 | Cn1cc(C(=O)NN)c2ccccc21 | 138 to 140
31 | COc1ccccc1CNc1ccc2[nH]c(=O)[nH]c2c1 | 216 to 218
32 | Cc1cc(C(=O)O)c(C)n1C1CCCCC1 | 204 to 206
33 | Cc1nncn1C1CC1 | 49 to 51
34 | COc1cccc(C(N)CC(=O)O)c1OC (stereo unspecified) | 206 to 208
35 | CNc1cccnc1N1CCCC1 | 105 to 107
36 | CC(Cl)C(=O)Nc1cccc(Cl)c1Cl (stereo unspecified) | 96 to 98
37 | O=C(CCl)N1CCN(S(=O)(=O)c2ccc(F)c(Cl)c2)CC1 | 121 to 123
38 | O=C(O)CSC(=Cc1ccco1)c1nc2ccccc2s1 | 133 to 135
39 | Clc1nnc(-c2ccccc2)s1 | 82 to 84
40 | Nc1nnc(-c2ccc3ccccc3c2)o1 | 274 to 276
41 | CC1CC(C(=O)O)CCO1 (stereo unspecified) | 44 to 46
42 | CC(C)(C)n1ncc2c(=O)[nH]cnc21 | 226 to 228
43 | CC(C)C(Br)C(N)=O (stereo unspecified) | 131 to 133
44 | COC(=O)c1sc2ccccc2c1S(=O)(=O)Cl | 98 to 100
45 | Cc1cc(Cl)cc2cccnc12 | 62 to 64
46 | Cc1cc(C(=O)CCl)c(C)n1-c1ccc2c(c1)OCCO2 | 99 to 103
47 | NS(=O)(=O)c1cc(Cl)c(Cl)c(C(=O)O)c1 | 237 to 239
48 | CC(NC1=NS(=O)(=O)c2ccccc21)C(=O)O (stereo unspecified) | 220 to 222
49 | COc1ccc(-c2noc(CCl)n2)c(OC)c1 | 76 to 80
50 | CC1(C(=O)O)CCCN1C(=O)c1ccccc1 (stereo unspecified) | 205 to 207

Row | SMILES | melting point [°C]
51 | Cc1cc(C(=O)CCl)c(C)n1-c1ccc2c(c1)OCO2 | 98 to 110
52 | Nc1nc(-c2ccc(C3CCCCC3)cc2)cs1 | 227 to 229
53 | Cc1cc(C)c2c(Cl)c(C(=O)O)sc2c1 | 286 to 288
54 | CC(=O)Nc1cc(F)c(F)cc1N | 162 to 164
55 | CN(C)C(=O)Sc1ccc(CCl)cc1 | 78 to 80
56 | O=C(O)c1cc2cccc(C(F)(F)F)c2[nH]1 | 179 to 181
57 | CN(C)c1cc(C#N)c2ccccc2n1 | 119 to 121
58 | O=C(O)c1ccc(Sc2ccccc2)c([N+](=O)[O-])c1 | 228 to 230
59 | O=C(O)c1cc(/C=C/c2cccc(C(F)(F)F)c2)nc2ccc(Br)cc12 | 310 to 312
60 | NS(=O)(=O)c1ccnc(Cl)c1 | 134 to 136
61 | Cc1cc(C(=O)O)nn1-c1ccccc1 | 182 to 184
62 | O=Cc1cc(Br)c2c(c1)OCCCO2 | 73 to 75
63 | CCOC(=O)/C(C#N)=C\Nc1ccc(OC(F)F)cc1 | 101 to 103
64 | NC(=O)c1ccc(N=C=S)cc1 | 189 to 191
65 | Cn1ncnc1-c1cccc(N)c1 | 93 to 95
66 | Cc1ccc(S(N)(=O)=O)c(C(=O)O)c1 | 271 to 273
67 | NC1CCN(c2cccc(Cl)c2)C1=O (stereo unspecified) | 99 to 101
68 | NCc1ccnc(NC2CC2)c1 | 39 to 41
69 | NC(=O)Nc1ccc([N+](=O)[O-])cc1 | 224 to 226
70 | CCN1CCN(CC(=O)O)C(=O)C1=O | 200 to 202
71 | C=CCN(CC=C)C(=O)c1ccc(N)cc1 | 104 to 106
72 | CC1CCc2c(sc3nc(CN4CCOCC4)nc(Cl)c23)C1 (stereo unspecified) | 55 to 57
73 | CC(=O)N1CCN(S(=O)(=O)c2cccc(C(=O)O)c2)CC1 | 258 to 262
74 | NNC(=O)CC1CCCC1 | 82 to 84
75 | Cc1cc(=O)[nH]c(-c2ccncc2)n1 | 241 to 243

Row | SMILES | melting point [°C]
76 | CCc1nc(C=O)c2ccccn12 | 103 to 105
77 | CCCn1c(S)nnc1CO | 119 to 121
78 | CC(C)(C#N)C(=O)O | 54 to 56
79 | O=C(O)CNC(=O)c1ccc(Br)s1 | 177 to 179
80 | Cn1nnc(C(=O)O)c1C(F)(F)F | 114 to 116
81 | Cc1cccc(S(N)(=O)=O)c1Cl | 169 to 171
82 | N#CCc1ccc([N+](=O)[O-])cc1Br | 66 to 68
83 | O=C(O)CN1C(=O)c2ccc(Br)cc2C1=O | 204 to 206
84 | O=C(O)C=Cc1csc(Br)c1 | 187 to 189
85 | O/N=C1\CCN2CCCCC12 (stereo unspecified) | 96 to 98
86 | Cc1cc(F)c(C(=O)O)cc1F | 167 to 169
87 | C/C(=N\Nc1ccc(Cl)c(C(=O)O)c1)c1ccc(Br)cc1 | 180 to 182
88 | Cc1ccc(C(=O)N2CCOCC2)cc1N | 153 to 155
89 | CC(=O)Nc1c(C)cc(N)cc1C | 204 to 206
90 | O=C(O)CC(Cc1ccccc1)c1ccccc1 (stereo unspecified) | 90 to 92
91 | CN1CCN(c2nccc(Cl)n2)CC1 | 94 to 96
92 | CC(=O)Oc1cc(C(=O)O)cc(OC(C)=O)c1OC(C)=O | 163 to 165
93 | CCOC(=O)C(=O)c1csc(N)n1 | 78 to 80
94 | Cc1ccc(C#N)c(=O)n1C | 129 to 131
95 | O=C(O)Cc1csc(N2CCCC2=O)n1 | 118 to 120
96 | Nc1c(-c2ccccc2)ncn1C1CC1 | 148 to 150
97 | CCc1ccc(S(=O)(=O)Cl)cc1C(=O)O | 133 to 135
98 | CCn1nc(N)cc1C1CC1 | 111 to 113
99 | CCOC(=O)/C(C#N)=C/Nc1ccc(OC)cc1OC | 153 to 155
100 | Cc1ccc(S(=O)(=O)NCC(=O)O)cc1C | 123 to 125

Row | SMILES | melting point [°C]
101 | Cc1ccc(Br)cc1NC(=O)CN | 141 to 143
102 | Cc1cc(=O)[nH]c(-c2ccnc(Cl)c2)n1 | 269 to 271
103 | OC(CNC1CC1)c1ccc(F)cc1 (stereo unspecified) | 84 to 86
104 | Cc1c(N)cccc1S(=O)(=O)NC(C)(C)C | 185 to 187
105 | NCc1ccc(OCCCOc2ccc(Cl)cc2Cl)cc1 | 51 to 53
106 | COC(=O)c1c(NC(=O)CCl)sc(C)c1C | 143 to 145
107 | CC(C)(C)CC(O)C(=O)O (stereo unspecified) | 71 to 73
108 | CC(=O)NC1CCCN(C(=O)CCl)C1 (stereo unspecified) | 110 to 112
109 | O=S(=O)(c1ccc(Cl)c(Cl)c1)N1CCNCC1 | 125 to 127
110 | Nc1nc2ccccc2n1-c1ccccc1F | 121 to 123
111 | CC(C)c1noc2ncc(C(=O)O)cc12 | 159 to 161
112 | COC(=O)Cn1cnc(N)n1 | 136 to 138
113 | BrCCc1ccc2ccccc2c1 | 62 to 64
114 | Nc1nc2ccccn2n1 | 123 to 125
115 | CC(=O)Nc1ccc(C(=O)C(C)Cl)cc1 (stereo unspecified) | 190 to 193
116 | O=C(O)c1cnc(-c2ccco2)s1 | 237 to 239
117 | Nc1cc(C(=O)O)cnc1Cl | 199 to 201
118 | Cc1c(C(=O)O)nnn1C1CCN(C(=O)OC(C)(C)C)CC1 | 179 to 181
119 | CN(C)c1ccc(C(=O)O)cc1[N+](=O)[O-] | 198 to 200
120 | Cc1nc2sc(C(=O)O)c(C)c2c(=O)[nH]1 | 388 to 390
121 | CC1C(=O)Nc2cc(C(=O)O)ccc2N1C (stereo unspecified) | 289 to 291
122 | CCCCn1c(N)c(NCc2ccccc2)c(=O)[nH]c1=O | 207 to 209
123 | CC(=O)c1ccccc1NS(=O)(=O)c1cccs1 | 150 to 152
124 | CCOCCNC(=O)c1cccc(Br)c1 | 62 to 64
125 | Fc1ccc(-c2cnc(S)o2)cc1 | 252 to 254

Row | SMILES | melting point [°C]
126 | NS(=O)(=O)c1nccs1 | 119 to 121
127 | Oc1ccccc1C1=NCCN1 | 199 to 201
128 | CC(=O)c1sc2nc(CCl)[nH]c(=O)c2c1C | 247 to 249
129 | CCc1cc(O)ncn1 | 135 to 137
130 | O=C(O)c1nnn(-c2ccc(F)cc2)c1C(F)(F)F | 146 to 148
131 | CCOC(=O)c1nc(NCc2ccccc2)sc1C | 98 to 100
132 | Nc1ccn(CCc2ccccn2)n1 | 69 to 71
133 | Cc1scc(C(=O)O)c1C | 139 to 141
134 | COc1ccc([N+](=O)[O-])cc1C#N | 69 to 71
135 | CC(C)(C)NS(=O)(=O)c1ccccc1CN | 131 to 133
136 | NNc1ccnc2ccccc12 | 155 to 157
137 | CN(C)C(=O)c1cccc(Br)c1 | 52 to 54
138 | ClCc1nc2cc(Cl)ccc2s1 | 99 to 101
139 | CS(=O)(=O)Nc1ccc(N)cc1Br | 146 to 148
140 | O=C(O)CCSc1ccccc1Cl | 92 to 102
141 | Cc1oc(-c2ccco2)nc1CCl | 58 to 60
142 | Nc1nnc(Cc2ccsc2)o1 | 151 to 153
143 | CCOC(C(=O)O)(c1ccccc1)c1ccccc1 | 113 to 115
144 | Cc1nc2cc(NC(=O)CCC(=O)O)ccc2o1 | 184 to 186
145 | Cc1n[nH]c(C)c1S(=O)(=O)N1CCCCC1 | 72 to 73
146 | Sc1nnc(N2CCOCC2)s1 | 179 to 181
